This note sets out measurements from ChEMBL document CHEMBL4002609, “Sulfonamide-based non-alkyne LpxC inhibitors as Gram-negative antibacterial agents” (Bioorg Med Chem Lett, 2017).

Usually IC50 stands for the concentration that gives 50% inhibition. A word on the MIC: it is the lowest concentration found to suppress growth. A high value points to weaker potency.

In brackets after ≈: the same amount, converted by molar mass.

Data set [1] deals with T1, UDP-3-O-acyl-N-acetylglucosamine deacetylase (Escherichia coli K-12, UniProt P0A725).
T1 sequence (P0A725 whole entry): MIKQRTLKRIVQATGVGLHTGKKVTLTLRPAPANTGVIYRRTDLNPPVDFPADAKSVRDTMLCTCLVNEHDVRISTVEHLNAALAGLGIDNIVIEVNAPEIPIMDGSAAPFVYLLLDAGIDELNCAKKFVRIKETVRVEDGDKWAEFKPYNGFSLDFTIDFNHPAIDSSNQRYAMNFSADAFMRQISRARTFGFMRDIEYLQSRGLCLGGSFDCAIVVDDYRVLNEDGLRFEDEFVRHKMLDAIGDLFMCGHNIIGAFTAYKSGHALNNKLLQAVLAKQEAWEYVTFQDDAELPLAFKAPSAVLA
In words: Inhibition of Escherichia coli LpxC using UDP-3-O-(R-3-hydroxymyristoyl)GlcNAc as substrate after 60 mins by OPA reagent based fluorescence assay.

The test system of a further data set is Escherichia coli. The experiment in a line: Antibacterial activity against Escherichia coli TG1 by agar dilution method. In kind it is functional. For orientation: In agar dilution, organisms are placed on agar that contains the substance at set levels.
In a further data set the test system is Klebsiella pneumoniae. In words: Antibacterial activity against Klebsiella pneumoniae ATCC 13883 by agar dilution method. The class given is functional.
In another data set the test system is Pseudomonas aeruginosa. In words: Antibacterial activity against Pseudomonas aeruginosa PAO 4009 by agar dilution method. In kind it is functional.
The next data set relates to Staphylococcus aureus. In words: Antibacterial activity against Staphylococcus aureus ATCC 29213 by agar dilution method. In kind it is functional.
The next data set addresses Cytochrome P450 2C19 (Homo sapiens, UniProt P33261). The experiment in a line: Time-dependent inhibition of CYP2C19 (unknown origin). The class given is ADME.
The target of the next data set is Cytochrome P450 3A4 (Homo sapiens, UniProt P08684). In words: Time-dependent inhibition of CYP3A4 (unknown origin). The class given is ADME.
For a further data set, the target named is Cytochrome P450 2D6 (Homo sapiens, UniProt P10635). In words: Time-dependent inhibition of CYP2D6 (unknown origin). The class given is ADME.
In the next data set the target is T2, Cytochrome P450 1A2 (Homo sapiens, UniProt P05177).
T2 sequence (P05177 whole entry): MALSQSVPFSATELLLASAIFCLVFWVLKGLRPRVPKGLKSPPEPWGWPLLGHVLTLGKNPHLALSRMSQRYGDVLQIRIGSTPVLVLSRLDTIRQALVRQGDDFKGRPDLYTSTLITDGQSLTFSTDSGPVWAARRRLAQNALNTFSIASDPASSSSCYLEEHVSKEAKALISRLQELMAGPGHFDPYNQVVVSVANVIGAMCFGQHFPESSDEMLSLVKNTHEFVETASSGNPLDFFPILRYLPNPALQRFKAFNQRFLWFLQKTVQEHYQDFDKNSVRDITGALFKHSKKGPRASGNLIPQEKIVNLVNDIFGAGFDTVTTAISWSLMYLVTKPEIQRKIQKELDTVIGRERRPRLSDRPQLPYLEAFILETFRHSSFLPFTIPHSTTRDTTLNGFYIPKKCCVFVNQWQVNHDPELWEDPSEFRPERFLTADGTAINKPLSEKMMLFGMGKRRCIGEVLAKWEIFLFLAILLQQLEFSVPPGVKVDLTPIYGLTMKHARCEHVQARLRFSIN
In words: Time-dependent inhibition of CYP1A2 (unknown origin). The class given is ADME.

A further data set addresses Cytochrome P450 2C9 (Homo sapiens, UniProt P11712). In words: Time-dependent inhibition of CYP2C9 (unknown origin). In kind it is ADME.

Sequence of Cytochrome P450 3A4 (P08684 whole entry): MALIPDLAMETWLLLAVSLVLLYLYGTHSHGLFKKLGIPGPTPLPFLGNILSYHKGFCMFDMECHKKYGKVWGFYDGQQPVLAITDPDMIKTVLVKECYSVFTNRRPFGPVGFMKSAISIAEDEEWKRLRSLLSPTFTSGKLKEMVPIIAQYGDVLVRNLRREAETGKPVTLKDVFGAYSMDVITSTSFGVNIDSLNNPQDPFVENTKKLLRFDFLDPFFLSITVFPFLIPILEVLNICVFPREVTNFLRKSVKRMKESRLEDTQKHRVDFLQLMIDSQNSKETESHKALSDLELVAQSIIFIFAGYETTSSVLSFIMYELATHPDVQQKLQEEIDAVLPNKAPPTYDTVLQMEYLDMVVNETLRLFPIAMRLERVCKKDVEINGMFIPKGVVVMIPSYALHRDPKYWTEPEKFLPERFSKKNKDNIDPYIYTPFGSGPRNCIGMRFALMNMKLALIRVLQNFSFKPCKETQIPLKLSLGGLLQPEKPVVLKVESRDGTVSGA
Sequence of Cytochrome P450 2D6 (P10635 whole entry): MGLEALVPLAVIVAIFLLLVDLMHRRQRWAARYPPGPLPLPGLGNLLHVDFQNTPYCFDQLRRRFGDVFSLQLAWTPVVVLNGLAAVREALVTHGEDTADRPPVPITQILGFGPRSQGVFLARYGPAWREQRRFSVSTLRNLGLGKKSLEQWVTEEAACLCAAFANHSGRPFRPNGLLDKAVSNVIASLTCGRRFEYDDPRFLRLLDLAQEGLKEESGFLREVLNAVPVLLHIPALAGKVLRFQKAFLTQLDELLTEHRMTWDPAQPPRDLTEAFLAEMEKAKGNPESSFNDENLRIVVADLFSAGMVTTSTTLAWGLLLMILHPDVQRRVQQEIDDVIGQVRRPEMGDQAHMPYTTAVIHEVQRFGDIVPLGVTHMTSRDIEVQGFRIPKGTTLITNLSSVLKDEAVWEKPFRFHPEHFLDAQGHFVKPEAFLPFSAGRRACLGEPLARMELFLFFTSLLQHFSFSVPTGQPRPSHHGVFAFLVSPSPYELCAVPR
Sequence of Cytochrome P450 2C19 (P33261 whole entry): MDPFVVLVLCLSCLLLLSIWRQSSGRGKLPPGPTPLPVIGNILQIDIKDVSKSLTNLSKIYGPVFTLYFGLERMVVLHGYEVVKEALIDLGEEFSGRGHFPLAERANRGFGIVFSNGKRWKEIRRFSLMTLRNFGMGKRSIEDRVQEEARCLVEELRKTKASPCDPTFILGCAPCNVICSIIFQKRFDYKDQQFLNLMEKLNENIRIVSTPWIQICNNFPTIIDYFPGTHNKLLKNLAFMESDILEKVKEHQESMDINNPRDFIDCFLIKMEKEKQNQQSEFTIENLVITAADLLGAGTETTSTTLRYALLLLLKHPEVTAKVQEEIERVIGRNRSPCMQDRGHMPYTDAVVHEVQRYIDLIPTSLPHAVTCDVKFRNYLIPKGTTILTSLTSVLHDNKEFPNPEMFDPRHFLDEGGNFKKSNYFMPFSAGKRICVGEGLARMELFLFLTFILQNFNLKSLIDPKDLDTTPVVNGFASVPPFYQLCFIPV
Sequence of Cytochrome P450 2C9 (P11712 whole entry): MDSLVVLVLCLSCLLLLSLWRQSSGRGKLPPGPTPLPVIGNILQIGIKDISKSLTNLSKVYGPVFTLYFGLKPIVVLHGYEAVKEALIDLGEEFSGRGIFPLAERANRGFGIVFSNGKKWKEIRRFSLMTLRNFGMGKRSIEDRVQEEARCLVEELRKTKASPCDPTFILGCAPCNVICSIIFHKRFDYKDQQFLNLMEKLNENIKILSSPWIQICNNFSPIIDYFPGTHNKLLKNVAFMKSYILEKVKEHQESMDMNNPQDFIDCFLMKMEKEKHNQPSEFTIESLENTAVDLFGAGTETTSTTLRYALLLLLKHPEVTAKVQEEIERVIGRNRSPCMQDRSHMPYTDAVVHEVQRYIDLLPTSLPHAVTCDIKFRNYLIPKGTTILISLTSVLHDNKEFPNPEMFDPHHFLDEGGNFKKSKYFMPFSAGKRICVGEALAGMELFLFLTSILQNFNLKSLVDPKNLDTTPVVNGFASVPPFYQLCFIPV

`Cc1ccc(-c2ccc(C(=O)N[C@H](C(=O)NO)C(C)(C)NS(C)(=O)=O)nc2)cc1`: in data set [1], the IC50 was more than 10 µM. In addition, the figures for the MIC with Escherichia coli, in the data set with Klebsiella pneumoniae and against Pseudomonas aeruginosa were 32 µg/mL (≈ 76.1 µM), more than 128 µg/mL and 32 µg/mL (≈ 76.1 µM), respectively.

For the compound `CC(C)(NS(C)(=O)=O)[C@H](NC(=O)c1ccc(-c2nc3ccccc3o2)cc1)C(=O)NO`, in [1], the concentration for half-maximal inhibition (IC50) came to 0.41 µM. Also, the MIC in the data set with Escherichia coli was 1 µg/mL (≈ 2.24 µM); against Klebsiella pneumoniae it was 8 µg/mL (≈ 17.9 µM); against Staphylococcus aureus it was more than 128 µg/mL; against Pseudomonas aeruginosa, 4 µg/mL (≈ 8.96 µM).

In turn, `CC(C)(NS(C)(=O)=O)[C@H](NC(=O)c1ccc(-c2cc3ccccc3o2)cc1)C(=O)NO` showed an IC50 in data set [1] of 0.081 µM. Besides, the MIC was 0.25 µg/mL (≈ 0.561 µM) against Escherichia coli, 1 µg/mL (≈ 2.24 µM) with Klebsiella pneumoniae, 64 µg/mL (≈ 144 µM) in the data set with Staphylococcus aureus and 1 µg/mL (≈ 2.24 µM) against Pseudomonas aeruginosa.

Take `Cc1ncc(-c2ccc(C(=O)N[C@H](C(=O)NO)C(C)(C)NS(C)(=O)=O)cc2)cn1`: in [1], the IC50 is more than 10 µM. In addition, the MIC against Escherichia coli, in the data set on Klebsiella pneumoniae and in the data set with Pseudomonas aeruginosa was more than 128 µg/mL throughout.

In [1], `Cc1ccc(-c2ccc(C(=O)N[C@H](C(=O)NO)C(C)(C)NS(C)(=O)=O)cn2)cc1` returned an IC50 of 1.5 µM. For the same compound, the MIC stood at 8 µg/mL (≈ 19 µM) against Escherichia coli, 64 µg/mL (≈ 152 µM) against Klebsiella pneumoniae and 4 µg/mL (≈ 9.51 µM) against Pseudomonas aeruginosa.

`CC(C)(NS(C)(=O)=O)[C@H](NC(=O)c1ccc(-c2cc3ccccn3n2)cc1)C(=O)NO` had an IC50 in data set [1] of more than 10 µM. In addition, the MIC in the data set on Escherichia coli is 64 µg/mL (≈ 144 µM); against Klebsiella pneumoniae, more than 128 µg/mL; in the data set with Staphylococcus aureus, more than 128 µg/mL; against Pseudomonas aeruginosa it was 4 µg/mL (≈ 8.98 µM).

`CC(C)(NS(C)(=O)=O)[C@H](NC(=O)c1ccc(-c2cc3ccc(OCCO)cc3o2)cc1)C(=O)NO` displayed an IC50 in data set [1] of 0.01 µM. The MIC was 1 µg/mL (≈ 1.98 µM) with Escherichia coli, 8 µg/mL (≈ 15.8 µM) against Klebsiella pneumoniae, more than 128 µg/mL in the data set on Staphylococcus aureus and 4 µg/mL (≈ 7.91 µM) in the data set with Pseudomonas aeruginosa.

Regarding `C[C@@H](O)[C@H](NC(=O)c1ccc(C#Cc2ccc(CN3CCOCC3)cc2)cc1)C(=O)NO`, the MIC with Escherichia coli is 0.125 µg/mL (≈ 0.286 µM); with Klebsiella pneumoniae, 0.25 µg/mL (≈ 0.571 µM); with Staphylococcus aureus, more than 128 µg/mL; in the data set with Pseudomonas aeruginosa, 0.5 µg/mL (≈ 1.14 µM).

Take `CC(C)(NS(C)(=O)=O)[C@H](NC(=O)c1ccc(-c2cc3ccncc3o2)cc1)C(=O)NO`: the IC50 in [1] came to 1.4 µM. The MIC in the data set with Escherichia coli was 8 µg/mL (≈ 17.9 µM); in the data set with Klebsiella pneumoniae, 128 µg/mL (≈ 287 µM); with Staphylococcus aureus, more than 128 µg/mL; in the data set on Pseudomonas aeruginosa, 8 µg/mL (≈ 17.9 µM).

Compound `CN(C)CCOc1ccc2cc(-c3ccc(C(=O)N[C@H](C(=O)NO)C(C)(C)NS(C)(=O)=O)cc3)oc2c1` had an IC50 in data set [1] of 0.022 µM. Moreover, the MIC in the data set on Escherichia coli was 4 µg/mL (≈ 7.51 µM); against Klebsiella pneumoniae, 32 µg/mL (≈ 60.1 µM); with Staphylococcus aureus, more than 128 µg/mL; in the data set with Pseudomonas aeruginosa, 8 µg/mL (≈ 15 µM).

The compound `CC(C)(NS(C)(=O)=O)[C@H](NC(=O)c1ccc(-c2cc3cncnc3o2)cc1)C(=O)NO` showed an IC50 in [1] of more than 10 µM. For the same compound, the MIC against Escherichia coli is 128 µg/mL (≈ 286 µM); in the data set with Klebsiella pneumoniae, more than 128 µg/mL; in the data set with Staphylococcus aureus, more than 128 µg/mL; against Pseudomonas aeruginosa it was 32 µg/mL (≈ 71.5 µM).

In turn, `CC(C)(NS(C)(=O)=O)[C@H](NC(=O)c1ccc(-c2cc3cc(F)ccc3o2)cc1)C(=O)NO` showed an IC50 in [1] of 0.1 µM. In addition, the minimal inhibitory concentration (MIC) amounted to 0.25 µg/mL (≈ 0.539 µM) with Escherichia coli, 1 µg/mL (≈ 2.16 µM) against Klebsiella pneumoniae, 32 µg/mL (≈ 69 µM) in the data set on Staphylococcus aureus and 0.5 µg/mL (≈ 1.08 µM) against Pseudomonas aeruginosa.

Regarding `CC(C)(NS(C)(=O)=O)[C@H](NC(=O)c1ccc(-c2cc3ccc(F)cc3o2)cc1)C(=O)NO`, in [1], the half-maximal inhibitory concentration (IC50) was determined as 0.079 µM. Moreover, the MIC with Escherichia coli amounted to 0.25 µg/mL (≈ 0.539 µM); against Klebsiella pneumoniae, 1 µg/mL (≈ 2.16 µM); against Staphylococcus aureus it was 64 µg/mL (≈ 138 µM); against Pseudomonas aeruginosa, 0.5 µg/mL (≈ 1.08 µM).

On to `Cc1ccc(-c2ccc(C(=O)N[C@H](C(=O)NO)C(C)(C)NS(C)(=O)=O)cc2)cc1`, for which the TDI result at Cytochrome P450 2C19, on Cytochrome P450 3A4, on Cytochrome P450 2D6, at Cytochrome P450 1A2 and at Cytochrome P450 2C9 was “Active” in each case. Also, half-maximal inhibition in data set [1] (IC50) required 0.42 µM. Also, the MIC in the data set on Escherichia coli was 1 µg/mL (≈ 2.38 µM); against Klebsiella pneumoniae it was 4 µg/mL (≈ 9.54 µM); against Staphylococcus aureus, more than 128 µg/mL; against Pseudomonas aeruginosa it was 0.5 µg/mL (≈ 1.19 µM).

In turn, `CC(C)(NS(C)(=O)=O)[C@H](NC(=O)c1ccc(-c2cc3cc4c(cc3o2)OCO4)cc1)C(=O)NO` yielded a half-maximal inhibitory concentration (IC50) in [1] of 0.012 µM. Moreover, the MIC against Escherichia coli is 0.063 µg/mL (≈ 0.129 µM); against Klebsiella pneumoniae, 0.5 µg/mL (≈ 1.02 µM); with Staphylococcus aureus, more than 32 µg/mL; against Pseudomonas aeruginosa, 0.5 µg/mL (≈ 1.02 µM).

`Cc1cnc(-c2ccc(C(=O)N[C@H](C(=O)NO)C(C)(C)NS(C)(=O)=O)cc2)nc1` yielded an IC50 in data set [1] of more than 10 µM. The values for the MIC against Escherichia coli, with Klebsiella pneumoniae and in the data set with Pseudomonas aeruginosa were 64 µg/mL (≈ 152 µM), more than 128 µg/mL and 16 µg/mL (≈ 38 µM), respectively.

`CC(C)(NS(C)(=O)=O)[C@H](NC(=O)c1ccc(-c2ccccc2)cc1)C(=O)NO` showed an IC50 in [1] of 1.2 µM. For the same compound, the results for the minimal inhibitory concentration (MIC) in the data set with Escherichia coli, against Klebsiella pneumoniae and in the data set with Pseudomonas aeruginosa were 2 µg/mL (≈ 4.93 µM), 64 µg/mL (≈ 158 µM) and 1 µg/mL (≈ 2.47 µM), respectively.

For `CC(C)(NS(C)(=O)=O)[C@H](NC(=O)c1ccc(-c2cc3ccc(O)cc3o2)cc1)C(=O)NO`, 0.14 µM corresponded to half-maximal inhibition in data set [1] (IC50). In addition, the MIC against Escherichia coli was 1 µg/mL (≈ 2.17 µM); against Klebsiella pneumoniae, 8 µg/mL (≈ 17.3 µM); in the data set with Staphylococcus aureus, more than 64 µg/mL; with Pseudomonas aeruginosa, 2 µg/mL (≈ 4.33 µM).
